For one data set, the system named is sarcoma 180 cells. Put plainly: Inhibition of intracellular phosphorylation of 5-FU in cancer cells. The format is cell-based, mouse. The note with it: for inhibition at 10 µM / inhibition at 100 µM: Mus musculus, Sarcoma-180, 0.5 h. The procedure: (§1) • (a) Test liquid preparation 1: Compound I-2 or I-10 of the present invention was dissolved to a concentration of 1 mM in cold physiological saline. The resulting product was further diluted 10-fold with physiological saline, yielding a 100-μM solution. • (b) Test liquid preparation 2: As an OPRT inhibitor, which inhibits the phosphorylation of 5-FU, citrazinic acid (Citra.A.) was dissolved to a concentration of 1 mM in cold physiological saline, and further diluted 10-fold with physiological saline, yielding a 100-μM solution. • (c) Preparation of cancer cell suspension: Ascites-type sarcoma 180 cells were preliminarily transplanted intraperitoneally into an ICR mouse and proliferated therein for use in the test as raw (intact) cells. The proliferated cells were isolated and then washed with physiological saline. […] Immediately after the completion of the reaction, 4 mL of a cold Hanks solution was added to the reaction solution, and the cells were washed and separated by centrifugation. After this procedure was repeated twice, 2 mL of a cold 5% trichloroacetic acid (TCA) solution was added to the cell pellet to disrupt the cells, and 5-FU and its nucleotide metabolites were extracted. Subsequently, a portion of the nucleic acid extract was applied to a silica gel 60F254 plate and developed with a mixed liquid comprising chloroform-methanol-acetic acid (17:3:1) to isolate the nucleotide moiety. The radioactivity thereof was measured and the concentration of 5-FU phosphorylation was measured.
as §1, with “1: Compounds I-9, I-11, I-12, and I-13” for “1: Compound I-2 or I-10”, “invention were separately” for “invention was”, “saline. Each of the” for “saline. The”, “resulting products” for “resulting product”, “acid” for “acid (Citra.A.)”

Data set [1] has as its system human gastric cancer strain (SC-2). The note with it: 14 days, day 15; for Average weight change (%) / Tumor proliferation inhibition ratio (%): Test Example 3; for BWC (% initial) / IR (%): Test Example 6. The procedure: The resulting product was stirred with a stirrer at room temperature for about 10 minutes. […] Thereafter, ultrasonic treatment was performed under ice cooling for about 5 minutes, thereby obtaining a BOF-A2 drug liquid to be used at a dose of 14 mg/kg/day, 21 mg/kg/day, or 28 mg/kg/day. • (f) Experiment: The human gastric cancer strain (SC-2) was subcutaneously transplanted into the back of a BALB/cA-nu mouse and preliminarily proliferated therein. The proliferated strain was extracted, cut into about 2 mm square pieces with scissors in physiological saline, and subcutaneously inoculated to the right axillary region of mice of the same strain, 5 to 6 weeks of age, using a transplantation needle. […] Then, drug administration was initiated from the next day. Each of the test liquids shown in (a) to (e) above was administered orally to the mice in each of the test drug groups using a sonde for oral administration at a dose of 0.1 ml per 10 g body weight once a day for 14 continuous days. In the same manner as the above, the cancer-bearing mice in the control group were subjected to oral administration of only 0.5% HPMC liquid for 14 continuous days.
The tumor volume of each mouse in each group before the initiation of the treatment, on day 3, day 5, day 8 (1 week after), day 11, and day 15 (2 weeks after), i.e., after termination of the administration, was calculated using Equation 1 below, and respective relative tumor volume (RTV) relative to the tumor volume at the time of initiation of the treatment was calculated. In relation to the antitumor effect, the average value of the tumor proliferation inhibition ratio (IR; %) was calculated from the average tumor volume of each treatment group on day 15 (after termination of the treatment) relative to that of the control group on day 15, using Equation 2. […] Along therewith, a weight change ratio was calculated from the body weight of the mice at the time of the termination of the drug administration relative to the body weight of the mice at the time of the initiation of the administration, using Equation 3. […] Tumor volume(mm^3)=(major axis)×(minor axis)^2×½ Equation 1: Tumor proliferation inhibition ratio(IR, %)=[1−(average tumor volume of treatment group)/(average tumor volume of control group)]×100 Equation 2: Average weight change ratio(%)=[(average weight on Day 15)−(average weight on Day 1)]/(average weight on Day 1)×100 Equation 3: […]
The resulting product was stirred with a stirrer at room temperature for about 10 minutes. […] The proliferated strain was extracted, cut into about 2 mm square pieces with scissors in physiological saline, and subcutaneously inoculated to the right axillary region of mice of the same strain, 5 to 6 weeks of age, using a transplantation needle. […] Then, drug administration was initiated from the next day. Each of the test liquids shown in (a) to (c) above was administered orally to the mice in each of the test drug groups using a sonde for oral administration at a dose of 0.1 ml per 10 g body weight once a day for 14 continuous days. In the same manner as the above, the cancer-bearing mice in the control group were subjected to oral administration of only 0.5% HPMC liquid for 14 continuous days.
The tumor volume of each mouse in each group before the initiation of the treatment, on day 3, day 5, day 8 (1 week after), day 11, and day 15 (2 weeks after), i.e., after termination of the administration, was calculated using Equation 1 below, and respective relative tumor volume (RTV) relative to the tumor volume at the time of initiation of the treatment was calculated. In relation to the antitumor effect, the average value of the tumor proliferation inhibition ratio (IR; %) was calculated from the average tumor volume of each treatment group on day 15 (after termination of the treatment) relative to that of the control group on day 15, using Equation 2.

The mark [2] stands for this setting: concentration of 10 μM, reaction for 30 minutes, read-out: percent inhibition of intracellular phosphorylation of 5-FU.
[3] abbreviates: concentration of 100 μM, reaction for 30 minutes, read-out: percent inhibition of intracellular phosphorylation of 5-FU.
Setting [4] is: Conc. 10 μM, 30 min. Incubation, 5-FU 2 μM, Table 6.
Setting [5] is: Conc. 100 μM, 30 min. Incubation, 5-FU 2 μM, Table 6.
Where [6] appears, read: Conc. 10 μM, 30 min. Incubation, 5-FU 2 μM, Table 6, read-out: Inhibition (%) of phosphorylation of 5-FU.
[7] abbreviates: Conc. 100 μM, 30 min. Incubation, 5-FU 2 μM, Table 6, read-out: Inhibition (%) of phosphorylation of 5-FU.

Where two headings read alike, the source gives them in different places.

As to `CCOCn1cc(F)c(=O)n(C(=O)c2cccc(C(=O)Oc3cc(OC(=O)c4cc(O)nc(O)c4)c(Cl)cn3)c2)c1=O` [Compound I-2, 3-{3-[4-(2,6-dihydroxyisonicotinoyloxy)-5-chloro-2-pyridyloxycarbonyl]benzoyl}-1-ethoxymethyl-5-fluorouracil], the F-nucleotides in the data set with sarcoma 180 cells (Conc. 10 μM, 30 min, Table 3 run with control 60.93) was 47.26 pmol/1 × 10^7 cells; in the data set with sarcoma 180 cells (Conc. 100 μM, 30 min, Table 3 run with control 60.93), 28.88 pmol/1 × 10^7 cells. For the same compound, the inhibition (commonly the change of the read-out against control, counted positive when it falls) at 10 µM in the data set with sarcoma 180 cells (Conc. 10 μM, 30 min, Table 3 run with control 60.93, read-out: % Inhibition of 5-FU phosphorylation) is 22.4%; in the data set with sarcoma 180 cells (setting [2]), 20 to 30%. Moreover, the inhibition at 100 µM is 52.6% in the data set on sarcoma 180 cells (Conc. 100 μM, 30 min, Table 3 run with control 60.93, read-out: % Inhibition of 5-FU phosphorylation) and 50 to 60% with sarcoma 180 cells (setting [3]). For the same compound, the “Average weight change (%)” value in data set [1] (15.0 mg/kg/day oral) is on record as −1.13%; in data set [1] (22.5 mg/kg/day oral) it was −4.18%; in data set [1] (30.0 mg/kg/day oral), 1.76%. Further, the “Tumor proliferation inhibition ratio (%)” value in data set [1] (15.0 mg/kg/day oral) is 41.1%; in data set [1] (22.5 mg/kg/day oral), 56.0%; in data set [1] (30.0 mg/kg/day oral), 67.9%.
In the case of `CCOCn1cc(F)c(=O)n(C(=O)c2cccc(C(=O)Oc3cc(OC(=O)c4cc(OC(=O)C5CCCC5)nc(OC(=O)C5CCCC5)c4)c(Cl)cn3)c2)c1=O` [Compound I-9, 3-{3-[4-(2,6-dicyclopentanecarbonyloxyisonicotinoyloxy)-5-chloro-2-pyridyloxycarbonyl]benzoyl}-1-ethoxymethyl-5-fluorouracil], the “RNA Fraction” value with sarcoma 180 cells (setting [4]) is reported as 27.42 pmol/1 × 10^7 cells; in the data set on sarcoma 180 cells (setting [5]), 23.61 pmol/1 × 10^7 cells. In addition, the inhibition at 10 µM in the data set with sarcoma 180 cells (setting [6]) was 56.7%; with sarcoma 180 cells (setting [2]), 35 to 57%. Further, the results for the inhibition at 100 µM in the data set on sarcoma 180 cells (setting [7]) and in the data set on sarcoma 180 cells (setting [3]) were 62.7% and 56 to 63%, respectively. Moreover, in data set [1] (49.5 mg/kg oral), the “BWC (% initial)” value was “+4.67 % initial”. In addition, the “IR (%)” value in data set [1] (49.5 mg/kg oral, equivalent to 12.5 mg/kg of S-1) is reported as 29.5%.
Consider `CCOCn1cc(F)c(=O)n(C(=O)c2cccc(C(=O)Oc3cc(OC(=O)c4cc(OC(C)=O)nc(OC(C)=O)c4)c(Cl)cn3)c2)c1=O` [Compound I-10, 3-{3-[4-(2,6-diacetyloxyisonicotinoyloxy)-5-chloro-2-pyridyloxycarbonyl]benzoyl}-1-ethoxymethyl-5-fluorouracil], for which the F-nucleotides in the data set on sarcoma 180 cells (Conc. 10 μM, 30 min, Table 3 run with control 63.32) was determined as 40.71 pmol/1 × 10^7 cells; in the data set on sarcoma 180 cells (Conc. 100 μM, 30 min, Table 3 run with control 63.32), 27.62 pmol/1 × 10^7 cells. Also, the inhibition at 10 µM in the data set on sarcoma 180 cells (Conc. 10 μM, 30 min, Table 3 run with control 63.32, read-out: % Inhibition of 5-FU phosphorylation) was 35.7%; in the data set with sarcoma 180 cells (setting [2]), 20 to 30%. The inhibition at 100 µM in the data set with sarcoma 180 cells (Conc. 100 μM, 30 min, Table 3 run with control 63.32, read-out: % Inhibition of 5-FU phosphorylation) is 56.4%; with sarcoma 180 cells (setting [3]) it was 50 to 60%. The results for the “Average weight change (%)” value in data set [1] (25.7 mg/kg/day oral), in data set [1] (34.2 mg/kg/day oral) and in data set [1] (42.8 mg/kg/day oral) were 1.97%, −0.05% and −4.31%, respectively. Besides, the “Tumor proliferation inhibition ratio (%)” value in data set [1] (25.7 mg/kg/day oral) stood at 31.9%; in data set [1] (34.2 mg/kg/day oral), 51.0%; in data set [1] (42.8 mg/kg/day oral), 57.7%.
For the compound `CCOCn1cc(F)c(=O)n(C(=O)c2cccc(C(=O)Oc3cc(OC(=O)c4cc(OC(=O)CC)nc(OC(=O)CC)c4)c(Cl)cn3)c2)c1=O` [Compound I-11, 3-{3-[4-(2,6-dipropionyloxyisonicotinoyloxy)-5-chloro-2-pyridyloxycarbonyl]benzoyl}-1-ethoxymethyl-5-fluorouracil], the figures for the “RNA Fraction” value in the data set on sarcoma 180 cells (setting [4]) and in the data set on sarcoma 180 cells (setting [5]) were 40.71 pmol/1 × 10^7 cells and 27.62 pmol/1 × 10^7 cells, respectively. Further, the inhibition at 10 µM is 35.7% in the data set with sarcoma 180 cells (setting [6]) and 35 to 57% in the data set on sarcoma 180 cells (setting [2]). Moreover, the results for the inhibition at 100 µM in the data set on sarcoma 180 cells (setting [7]) and in the data set with sarcoma 180 cells (setting [3]) were 56.4% and 56 to 63%, respectively. The results for the “BWC (% initial)” value in data set [1] (26.7 mg/kg oral), in data set [1] (35.6 mg/kg oral) and in data set [1] (44.5 mg/kg oral) were “+1.68 % initial”, “+1.82 % initial” and −3.94 % initial, respectively. In addition, the “IR (%)” value in data set [1] (26.7 mg/kg oral, equivalent to 7.5 mg/kg of S-1) was 17.0%; in data set [1] (35.6 mg/kg oral, equivalent to 10 mg/kg of S-1) it was 32.0%; in data set [1] (44.5 mg/kg oral, equivalent to 12.5 mg/kg of S-1), 47.3%.
